Results taken from PMC9785169, “New Insights Regarding Hemin Inhibition of the Purified Rat Brain 2-Oxoglutarate Carrier and Relationships with Mitochondrial Dysfunction” (Journal of Clinical Medicine, 2022).

Target: T1, 2-oxoglutarate/malate carrier (OGC) (Rattus norvegicus, UniProt P97700)
T1 construct: gene Slc25a11; OGC purified from rat brain mitochondria, reconstituted into proteoliposomes
T1 sequence (P97700 2-314): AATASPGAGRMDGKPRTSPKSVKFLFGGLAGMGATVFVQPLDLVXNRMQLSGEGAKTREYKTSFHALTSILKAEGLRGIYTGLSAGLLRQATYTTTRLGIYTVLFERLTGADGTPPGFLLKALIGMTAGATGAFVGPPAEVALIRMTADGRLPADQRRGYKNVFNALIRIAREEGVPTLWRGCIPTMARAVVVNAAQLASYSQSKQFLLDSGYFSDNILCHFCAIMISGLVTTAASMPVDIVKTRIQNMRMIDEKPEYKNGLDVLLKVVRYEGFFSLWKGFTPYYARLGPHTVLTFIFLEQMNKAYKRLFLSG
Test: […]malate uptake inhibition in proteoliposomes reconstituted with purified OGC, internal hemin
Type: biochemical

## C=CC1=C(C)C2=Cc3c(C=C)c(C)c4[n]3[Fe]([Cl])[n]3c(c(C)c(CCC(=O)O)c3=CC3=NC(=C4)C(C)=C3CCC(=O)O)=CC1=N2 [hemin]
  IC50: 82 ± 7 nM
